The record followed here is US20250302815A1, “PROTEIN TYROSINE PHOSPHATASE TARGETING LIGANDS” (CALICO LIFE SCIENCES LLC, priority 2021, published 2025).

Bounds are passed on as bounds.

The target in one assay is T1, PTPN2 (B16F10.4 cells) (Mus musculus, UniProt Q06180).
T1 construct: HiBiT; host or cells: B16F10.4
T1 sequence (Q06180 1-406): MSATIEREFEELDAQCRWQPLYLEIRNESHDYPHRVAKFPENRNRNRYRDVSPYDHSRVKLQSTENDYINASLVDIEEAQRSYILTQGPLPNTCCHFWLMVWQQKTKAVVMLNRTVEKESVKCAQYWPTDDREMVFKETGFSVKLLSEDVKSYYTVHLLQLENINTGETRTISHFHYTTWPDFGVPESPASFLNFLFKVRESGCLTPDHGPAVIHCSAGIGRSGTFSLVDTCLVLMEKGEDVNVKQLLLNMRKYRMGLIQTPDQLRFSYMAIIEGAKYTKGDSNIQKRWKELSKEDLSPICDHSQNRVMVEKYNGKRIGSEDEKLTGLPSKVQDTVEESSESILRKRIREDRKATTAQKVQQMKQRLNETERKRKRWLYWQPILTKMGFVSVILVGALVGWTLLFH
Put plainly: HiBiT Degradation B16F10.4 PTPN2. In kind it is cell-based. To be noted: 24.0 hours. (In general: HiBiT is a short tag that completes a luciferase, so light tracks the accessible tagged protein.)

The target in assay [1] is T2, PTPN2 (HiBIT-PTPN2 in 293T.109 cells) (Homo sapiens, UniProt P17706).
T2 construct: expressed in transfected cells; host or cells: 293T.109 (293T WT from ATCC)
T2 sequence (P17706 1-415): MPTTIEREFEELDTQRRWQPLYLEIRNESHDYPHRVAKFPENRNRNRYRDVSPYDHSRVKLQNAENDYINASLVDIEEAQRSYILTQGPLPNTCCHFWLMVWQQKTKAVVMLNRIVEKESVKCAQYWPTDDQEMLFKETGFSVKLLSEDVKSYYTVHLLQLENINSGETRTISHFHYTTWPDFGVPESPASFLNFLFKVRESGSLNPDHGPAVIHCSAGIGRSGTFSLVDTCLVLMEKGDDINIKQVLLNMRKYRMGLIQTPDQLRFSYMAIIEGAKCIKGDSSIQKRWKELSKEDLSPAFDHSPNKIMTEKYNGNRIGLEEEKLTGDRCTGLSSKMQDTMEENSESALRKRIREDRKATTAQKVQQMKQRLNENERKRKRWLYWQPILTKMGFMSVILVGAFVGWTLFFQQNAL
As to the kind of experiment: HiBiT Degradation 293T.109 PTPN2 (Nano-Glo HiBiT Lytic Assay). Format: cell-based. To be noted: 24.0 hours. An excerpt: Dulbecco's modified Eagle medium (DMEM) without phenol red and fetal bovine serum (FBS) were purchased from Gibco (Grand Island, NY, USA). Nano-Glo® HiBIT Lytic Assay System was purchased from Promega (Madison, WI, USA). 293T.109 (HiBIT-PTPN2) cell line was generated by ectopically expressing PTPN2 with N-terminal HiBIT fusion tag in 293T WT cell line purchased from ATCC (Manassas, VA, USA). Cell culture flasks and 384-well microplates were acquired from VWR (Radnor, PA, USA).
PTPN2 degradation was determined based on quantification of luminescent signal using Nano-Glo® HiBIT Lytic Assay kit. Test compounds were added to the 384-well plate from a top concentration of 10 μM with 11 points, half log titration in duplicates. 293T.109 cells were added into 384-well plates at a cell density of 5000 cells per well. The plates were kept at 37° C. with 5% CO2 for 24 hours. The cells treated in the absence of the test compound were the negative control and the cells without Nano-Glo® HiBIT Lytic reagent were the positive control. After 24-hour incubation, Nano-Glo® HiBiT Lytic Assay reagents were added to the cells. Luminescence was acquired on EnVision™ Multilabel Reader (PerkinElmer, Santa Clara, CA, USA).

The term DC50 denotes the concentration at which degradation of the target reaches its halfway point. A low value points to a more potent degrader. As to `Cn1c(=O)n(C2CCC(=O)NC2=O)c2ccc(C3CCN(C(=O)Nc4cccc(CS(=O)(=O)N5CC[C@H](Nc6cccc(-c7sc(C(=O)O)c(OCC(=O)O)c7Cl)c6)CC5(C)C)c4)CC3)c(F)c21` (stereo partly drawn) [Example 152, 3-(carboxymethoxy)-4-chloro-5-[3-[[(4S)-1-[[3-[[4-[1-(2,6-dioxo-3-piperidyl)-4-fluoro-3-methyl-2-oxo-benzimidazol-5-yl]piperidine-1-carbonyl]amino]phenyl]methylsulfonyl]-2,2-dimethyl-4-piperidyl]amino]phenyl]thiophene-2-carboxylic acid], the DC50 (at PTPN2 (B16F10.4 cells); in assay [1]) was 50 to 200 nM in each case.
On to `CC1(C)C[C@@H](Nc2cccc(-c3sc(C(=O)O)c(OCC(=O)O)c3Cl)c2)CCN1S(=O)(=O)Cc1cccc(NC(=O)CCCCCn2cc(CNc3cccc4c3C(=O)N(C3CCC(=O)NC3=O)C4=O)nn2)c1` (stereo partly drawn) [Example 12, 3-(carboxymethoxy)-4-chloro-5-(3-(((4S)-1-((3-(6-(4-(((2-(2,6-dioxopiperidin-3-yl)-1,3-dioxoisoindolin-4-yl)amino)methyl)-1H-1,2,3-triazol-1-yl)hexanamido)benzyl)sulfonyl)-2,2-dimethylpiperidin-4-yl)amino)phenyl)thiophene-2-carboxylic acid], for which the DC50 (on PTPN2 (B16F10.4 cells); in assay [1]) was 200 to 1000 nM throughout.
Turning to `CC1(C)C[C@H](Oc2cccc(-c3sc(C(=O)O)c(OCC(=O)O)c3Cl)c2)CCN1S(=O)(=O)Cc1cccc(NC(=O)N2CCC(c3ccc4c5c(cccc35)C(=O)N4C3CCC(=O)NC3=O)CC2)c1` (stereo partly drawn) [Example 227, 3-(carboxymethoxy)-4-chloro-5-(3-(((4R)-1-((3-(4-(1-(2,6-dioxopiperidin-3-yl)-2-oxo-1,2-dihydrobenzo[cd]indol-6-yl)piperidine-1-carboxamido)benzyl)sulfonyl)-2,2-dimethylpiperidin-4-yl)oxy)phenyl)thiophene-2-carboxylic acid], the DC50 lay in the range of 50 to 200 nM at PTPN2 (B16F10.4 cells) and 200 to 1000 nM in assay [1].
For `CC1(C)C[C@@H](Nc2cccc(-c3sc(C(=O)O)c(OCC(=O)O)c3Cl)c2)CCN1S(=O)(=O)Cc1cccc(NC(=O)C2CCN(C(=O)CNc3cccc4c3C(=O)N(C3CCC(=O)NC3=O)C4=O)CC2)c1` (stereo partly drawn) [Example 32, 3-(carboxymethoxy)-4-chloro-5-[3-[[(4S)-1-[[3-[[1-[2-[[2-(2,6-dioxo-3-piperidyl)-1,3-dioxo-isoindolin-4-yl]amino]acetyl]piperidine-4-carbonyl]amino]phenyl]methylsulfonyl]-2,2-dimethyl-4-piperidyl]amino]phenyl]thiophene-2-carboxylic acid], the DC50 at PTPN2 (B16F10.4 cells) was in the range of 200 to 1000 nM; in assay [1], 50 to 200 nM.
Taken in the same sequence, the figures for `CC1(C)C[C@@H](Nc2cccc(-c3sc(C(=O)O)c(OCC(=O)O)c3Cl)c2)CCN1S(=O)(=O)Cc1cccc(NC(=O)C2CCN(c3ccc4c5c(cccc35)N(C3CCC(=O)NC3=O)C4=O)CC2)c1` (stereo partly shown) [Example 216] were 50 to 200 nM and less than 50 nM.
Take `CC1(C)C[C@H](Nc2cccc(-c3sc(C(=O)O)c(OCC(=O)O)c3Cl)c2)CCN1S(=O)(=O)Cc1ccc(F)c(NC(=O)N2CCC(c3ccc4c5c(cccc35)C(=O)N4C3CCC(=O)NC3=O)CC2)c1` (stereo partly shown) [Example 127]: the DC50 on PTPN2 (B16F10.4 cells) is less than 50 nM; in assay [1] it was 200 to 1000 nM.
Taken in the same sequence, the figures for `CC1(C)C[C@@H](Nc2cccc(-c3sc(C(=O)O)c(OCC(=O)O)c3Cl)c2)CCN1S(=O)(=O)Cc1cc(NC(=O)N2CCC(c3ccc4c5c(cccc35)C(=O)N4C3CCC(=O)NC3=O)CC2)ccc1F` (stereo partly drawn) [Example 161, 3-(carboxymethoxy)-4-chloro-5-[3-[[(4S)-1-[[5-[[4-[1-(2,6-dioxo-3-piperidyl)-2-oxo-benzo[cd]indol-6-yl]piperidine-1-carbonyl]amino]-2-fluoro-phenyl]methylsulfonyl]-2,2-dimethyl-4-piperidyl]amino]phenyl]thiophene-2-carboxylic acid] were less than 50 nM and 50 to 200 nM.
Taken in the same sequence, the figures for `CC1(C)C[C@@H](Nc2cccc(-c3sc(C(=O)O)c(OCC(=O)O)c3Cl)c2)CCN1S(=O)(=O)Cc1cccc(NC(=O)CN2CCC(c3ccc4c5c(cccc35)C(=O)N4C3CCC(=O)NC3=O)CC2)c1` (stereo partly drawn) [Example 83, 3-(carboxymethoxy)-4-chloro-5-[3-[[(4S)-1-[[3-[[2-[4-[1-(2,6-dioxo-3-piperidyl)-2-oxo-benzo[cd]indol-6-yl]-1-piperidyl]acetyl]amino]phenyl]methylsulfonyl]-2,2-dimethyl-4-piperidyl]amino]phenyl]thiophene-2-carboxylic acid] were 50 to 200 nM and less than 50 nM.
Taken in the same sequence, the figures for `CC1(C)C[C@@H](Nc2cccc(-c3sc(C(=O)O)c(OCC(=O)O)c3Cl)c2)CCN1S(=O)(=O)Cc1cccc(NC(=O)C2CCN(C(=O)CNc3cccc4c3CN(C3CCC(=O)NC3=O)C4=O)CC2)c1` (stereo partly drawn) [Example 48, 3-(carboxymethoxy)-4-chloro-5-(3-(((4S)-1-((3-(1-((2-(2,6-dioxopiperidin-3-yl)-1-oxoisoindolin-4-yl)glycyl)piperidine-4-carboxamido)benzyl)sulfonyl)-2,2-dimethylpiperidin-4-yl)amino)phenyl)thiophene-2-carboxylic acid] were 200 to 1000 nM and less than 50 nM.
With `CC1(C)C[C@H](Nc2cccc(-c3sc(C(=O)O)c(OCC(=O)O)c3Cl)c2)CCN1S(=O)(=O)Cc1ccc(F)c(NC(=O)C2CN(C(=O)CNc3cccc4c3CN(C3CCC(=O)NC3=O)C4=O)C2)c1` (stereo partly shown) [Example 108], the DC50 is no less than 1000 nM at PTPN2 (B16F10.4 cells) and 50 to 200 nM in assay [1].
For `Cn1c(=O)n(C2CCC(=O)NC2=O)c2ccc(C3CCN(C(=O)Nc4cc(CS(=O)(=O)N5CCC(Nc6cccc(-c7sc(C(=O)O)c(OCC(=O)O)c7Cl)c6)CC5)ccc4F)CC3)cc21` (stereo not shown) [Example 104, 3-(carboxymethoxy)-4-chloro-5-[3-[[1-[[3-[[4-[1-(2,6-dioxo-3-piperidyl)-3-methyl-2-oxo-benzimidazol-5-yl]piperidine-1-carbonyl]amino]-4-fluoro-phenyl]methylsulfonyl]-4-piperidyl]amino]phenyl]thiophene-2-carboxylic acid], in that order: less than 50 nM and 50 to 200 nM.
Take `O=C(O)COc1c(C(=O)O)sc(-c2cccc(NC3CCN(S(=O)(=O)Cc4cccc(NC(=O)CCOCCOCCOCCCc5ccc6c(c5)CN(C5CCC(=O)NC5=O)C6=O)c4)CC3)c2)c1Cl` (stereo not shown) [Example 19, 3-(carboxymethoxy)-4-chloro-5-(3-((1-((3-(3-(2-(2-(3-(2-(2,6-dioxopiperidin-3-yl)-1-oxoisoindolin-5-yl)propoxy)ethoxy)ethoxy)propanamido)benzyl)sulfonyl)piperidin-4-yl)amino)phenyl)thiophene-2-carboxylic acid]: the DC50 (on PTPN2 (B16F10.4 cells); in assay [1]) was 200 to 1000 nM in each case.
For `CC1(C)C[C@H](Nc2cccc(-c3sc(C(=O)O)c(OCC(=O)O)c3Cl)c2)CCN1S(=O)(=O)Cc1ccc(F)c(NC(=O)[C@H]2[C@@H]3CN(C(=O)CNc4cccc5c4CN(C4CCC(=O)NC4=O)C5=O)C[C@@H]32)c1` (stereo partly drawn) [Example 111, 3-(carboxymethoxy)-4-chloro-5-(3-(((4R)-1-((3-((1R,5S,6r)-3-((2-(2,6-dioxopiperidin-3-yl)-1-oxoisoindolin-4-yl)glycyl)-3-azabicyclo[3.1.0]hexane-6-carboxamido)-4-fluorobenzyl)sulfonyl)-2,2-dimethylpiperidin-4-yl)amino)phenyl)thiophene-2-carboxylic acid], the DC50 is no less than 1000 nM at PTPN2 (B16F10.4 cells) and 200 to 1000 nM in assay [1].
For `Cn1c(=O)n(C2CCC(=O)NC2=O)c2ccc(C3CCN(CC(=O)Nc4cccc(CS(=O)(=O)N5CCC(Nc6cccc(-c7sc(C(=O)O)c(OCC(=O)O)c7Cl)c6)CC5(C)C)c4)CC3)cc21` [Example 69, 3-(carboxymethoxy)-4-chloro-5-[3-[[(4S)-1-[[3-[2-[4-[1-(2,6-dioxo-3-piperidyl)-3-methyl-2-oxo-benzimidazol-S-yl]-1-piperidyl]acetyl]amino]phenyl]methylsulfonyl]-2,2-dimethyl-4-piperidyl]amino]phenyl]thiophene-2-carboxylic acid], in that order: 50 to 200 nM and less than 50 nM.
